Measured values from patent US20260224573A1, “CRYSTAL FORM OF COMPOUND, AND PREPARATION METHOD AND USE THEREOF” (FELICAMED BIOTECHNOLOGY CO., LTD., priority 2023, published 2026).
In brackets after ≈: the same amount, converted by molar mass. Where two headings read alike, the source gives them in different places.

Tests used:
[1] = Assessment of 24-h solubility in pH buffers; assay type: physicochemical; settings: room temperature
SD rats = test: Acute toxicity test, single oral intragastric administration; assay type: in vivo; settings: female rats
Method: (§1) In this experiment, all animals were randomly divided into 5 groups (5 animals/sex/group), received the drug at 97 mg/kg, 174 mg/kg, 312 mg/kg, 559 mg/kg, and 1000 mg/kg, respectively, and received signal intragastric administration orally. […] All animals received administration according to their latest weighed body weight. The drug was stirred for at least 10 min before administration, and continuously stirred during administration until the administration of the sample at this concentration was completed. The animals were fasted for 11 h to 12 h before administration and resumed eating approximately 2 h after administration, with no restriction on drinking water.
(§2) All animals underwent a comprehensive physical examination by a veterinarian before administration. During the acclimation period, cage-side observation was performed once or twice a day, and detailed clinical observation was performed once a day. During the experiment, cage-side observation was performed twice a day (once on the day of dissection), and detailed clinical observation was performed once or twice a day. All surviving animals were weighed once on the day of random grouping (Day-1), Day 1 (before administration), Day 3, Day 5, Day 7, and Day 8; and their 24±1-hour food consumption was measured once on Day 1 (Day 1 to Day 2), Day 2 (Day 2 to Day 3), and Day 6 (Day 6 to Day 7). At the end of the experimental (Day 8), all surviving animals were euthanized by carbon dioxide inhalation and abdominal aorta/vein bleeding and then subjected to gross anatomical examination. Animals that died during the experiment were also subjected to gross anatomical examination.

[2] = as above; assay type: in vivo; settings: Sprague-Dawley, rat, in vivo
Method: as §1, §2

[3] = TGA weight loss / thermal stability; assay type: physicochemical
Source text: TGA and DSC patterns were collected on a TA Q5000 thermogravimetric analyzer and a TA Discovery 2500 differential scanning calorimeter, respectively.
TGA results were collected on a TA Discovery 5500 thermogravimetric analyzer, and DSC results were collected on a TA Discovery 2500 differential scanning calorimeter.

[4] = Pharmacokinetics of free crystal form A in Beagle dogs; assay type: in vivo; settings: for MRT last: read-out: MRT0-t; for bioavailability: from average AUC0-t after dose correction, read-out: F (oral bioavailability)
Method: All the animals in this experiment were randomly divided into 4 groups (3 dogs/sex/group). The animals in the group A, the group B, and the group D were fasted before administration, and the animals in the group C were fasted before the first administration and the last administration. All the animals were fasted for at least 12 h before administration, and food was resumed 4 h after administration. All the animals had free access to water and food during the experiment. The animals in the group A were intravenously injected with the drug at 2 mg/kg, and blood samples were collected from the jugular vein before and 0.033 […], and 24 h after administration. The animals in the group B and the group D received single intragastric administration of the drugs at 2 mg/kg and 20 mg/kg, respectively, and blood samples were collected from the jugular vein before and 0.083 […], and 24 h after administration. […] Blood samples were collected from the jugular vein before the first administration and the seventh administration and 0.083 […], and 24 h after administration. Blood samples were collected from the jugular vein before administration and 0.5 h after administration from the second administration to the sixth administration. The sample collected before the second administration was the sample collected 24 h after the first administration. The blood samples from the animals were collected through the jugular vein, with a blood sample volume of 0.5 mL/time. All collected whole blood samples were placed in centrifuge tubes containing ethylene diamine tetraacetic acid potassium salt (EDTA-K2), and the centrifuge tubes were turned upside down to allow the anticoagulant and blood to be fully mixed. All the samples were placed on wet ice before centrifugation and centrifuged at 1524 g for 10 min to separate plasma. The plasma samples were transferred to new centrifuge tubes and stored at -90° C. to […] until analysis. The drug concentration in the plasma of each Beagle dog was determined by liquid chromatography with tandem mass spectrometry (LC-MS/MS). The obtained plasma concentration data was analyzed by using the pharmacokinetic processing software WinNonlin 8.0 with a non-compartmental model to calculate relevant pharmacokinetic parameters.

[5] = both sexes, Beagle, dog, plasma, po, 2 mg/kg, i.g. 2 mg/kg single, male/female mean
[6] = both sexes, Beagle, dog, plasma, po, 6 mg/kg, i.g. 6 mg/kg once a day, seventh administration, male/female mean
[7] = both sexes, Beagle, dog, plasma, po, 6 mg/kg, i.g. 6 mg/kg, first administration, male/female mean
[8] = both sexes, Beagle, dog, plasma, po, 20 mg/kg, i.g. 20 mg/kg single, male/female mean
[9] = both sexes, Beagle, dog, plasma, po, i.g. 2 mg/kg single, male/female mean
[10] = both sexes, Beagle, dog, plasma, po, i.g. 6 mg/kg once a day, seventh administration, male/female mean
[11] = both sexes, Beagle, dog, plasma, po, i.g. 6 mg/kg, first administration, male/female mean
[12] = both sexes, Beagle, dog, plasma, po, i.g. 20 mg/kg single, male/female mean
[13] = both sexes, beagle, dog, plasma, iv, 2 mg/kg, i.v. 2 mg/kg, male and female, mean
[14] = both sexes, beagle, dog, plasma, iv, i.v. 2 mg/kg, male and female, mean

Q: For CC[S@@](=N)(=O)C[C@H]1CC[C@H](N(C)c2ncnc3[nH]ccc23)CC1 [Free crystal form A], which “FC: crystal transfer” value ([1]; Buffer (pH = 2.0)) is on record?
A: No

Q: And the “FC: crystal transfer” value ([1]; Buffer (pH = 7.4))?
A: No

Q: What about the solubility at 24 h ([1]; buffer pH 7.4, pH 7.4, aqueous buffer, thermodynamic from solid, Buffer (pH = 7.4), read-out: S: solubility, calculated as free form) of the same compound?
A: 1700 µg/mL (≈ 5.07 mM)

Q: What about the maximum tolerance dose (SD rats) of the same compound?
A: 174 mg/kg

Q: What about the LD50 at 7 d ([2]; oral, female rats, read-out: LD50 95% confidence interval) of the same compound?
A: 313 to 558 mg/kg

Q: And the LD50 at 7 d ([2]; oral, male rats, read-out: LD50 95% confidence interval)?
A: 429 to 818 mg/kg

Q: What about the MTD at 7 d ([2]; oral, male rats, read-out: maximum tolerance dose (MTD)) of the same compound?
A: 312 mg/kg

Q: And the LD50 at 7 d ([2]; po, female rats, single intragastric administration, 7 d observation, read-out: LD50)?
A: 418 mg/kg

Q: And the LD50 at 7 d ([2]; po, male rats, single intragastric administration, 7 d observation, read-out: LD50)?
A: 592 mg/kg

Q: What about the thermal stability ([3]; comparison of TGA/DSC patterns) of the same compound?
A: high

Q: And the TGA weight loss ([3]; heated from room temperature to 180° C.)?
A: 1.7%

Q: What about the AUC(0-t) [4, 5] of the same compound?
A: 8750 ng·h/mL

Q: And the MRT last [4, 5]?
A: 5.37 h

Q: What about the AUC(0-t) [4, 6] of the same compound?
A: 26600 ng·h/mL

Q: And the MRT last [4, 6]?
A: 5.12 h

Q: And the AUC(0-t) [4, 7]?
A: 30000 ng·h/mL

Q: And the MRT last [4, 7]?
A: 5.49 h

Q: What about the AUC(0-t) [4, 8] of the same compound?
A: 101000 ng·h/mL

Q: And the MRT last [4, 8]?
A: 5.2 h

Q: And the bioavailability ([4]; both sexes, Beagle, dog, plasma, po, i.g. 2 mg/kg single)?
A: 88%

Q: And the Cmax [4, 9]?
A: 1350 ng/mL

Q: What about the Tmax [4, 9] of the same compound?
A: 1.33 h

Q: And the half-life [4, 9]?
A: 3.89 h

Q: What about the Cmax at 7 days [4, 10] of the same compound?
A: 4540 ng/mL

Q: What about the Tmax at 7 days [4, 10] of the same compound?
A: 0.75 h

Q: What about the half-life at 7 days [4, 10] of the same compound?
A: 4.1 h

Q: And the bioavailability ([4]; both sexes, Beagle, dog, plasma, po, i.g. 6 mg/kg, first administration)?
A: 100%

Q: And the Cmax [4, 11]?
A: 4710 ng/mL

Q: And the Tmax [4, 11]?
A: 0.958 h

Q: What about the half-life [4, 11] of the same compound?
A: 4.2 h

Q: What about the bioavailability ([4]; both sexes, Beagle, dog, plasma, po, i.g. 20 mg/kg single) of the same compound?
A: 101%

Q: What about the Cmax [4, 12] of the same compound?
A: 13300 ng/mL

Q: And the Tmax [4, 12]?
A: 0.792 h

Q: What about the half-life [4, 12] of the same compound?
A: 4.17 h

Q: And the AUC(0-t) [4, 13]?
A: 9940 ng·h/mL

Q: What about the MRT last [4, 13] of the same compound?
A: 4.3 h

Q: And the C0 [4, 14]?
A: 4250 ng/mL

Q: And the clearance [4, 14]?
A: 3.4 mL/min/kg

Q: And the half-life [4, 14]?
A: 3.68 h

Q: What about the Vd ([4]; both sexes, beagle, dog, plasma, iv, i.v. 2 mg/kg, male and female, mean, read-out: VdSS) of the same compound?
A: 0.939 L/kg

Q: What about the drug accumulation ([4]; i.g. 6 mg/kg for 7 consecutive days) of the same compound?
A: No significant drug accumulation

Q: And the “male-to-female ratio of AUC0-t” value ([4]; i.v. 2 mg/kg)?
A: 0.748

Q: What about the “male-to-female ratio of C0” value ([4]; i.v. 2 mg/kg) of the same compound?
A: 0.758

Q: And the clinical observation ([4]; i.v. 2 mg/kg, i.g. 2, 6, 20 mg/kg, before and after administration and blood sampling)?
A: no obvious abnormalities were found

Q: And the “UPLC peak Area, RRT 1.00” value (25° C./60% RH/4 weeks)?
A: 99.71%

Q: What about the “UPLC peak Area, RRT 1.47” value (25° C./60% RH/4 weeks) of the same compound?
A: 0.06%

Q: And the “UPLC peak Area, RRT 1.63” value (25° C./60% RH/4 weeks)?
A: 0.05%

Q: And the “UPLC peak Area, RRT 2.10” value (25° C./60% RH/4 weeks)?
A: 0.10%

Q: What about the “UPLC peak Area, RRT 2.94” value (25° C./60% RH/4 weeks) of the same compound?
A: 0.07%

Q: And the “Crystal form Transform” value (25° C./60% RH/4 weeks, open)?
A: No

Q: What about the Purity (25° C./60% RH/4 weeks, open) of the same compound?
A: 99.71 area %

Q: What about the “UPLC peak Area, RRT 1.00” value (40° C./75% RH/4 weeks) of the same compound?
A: 99.72%

Q: And the “UPLC peak Area, RRT 1.47” value (40° C./75% RH/4 weeks)?
A: 0.06%

Q: What about the “UPLC peak Area, RRT 1.63” value (40° C./75% RH/4 weeks) of the same compound?
A: 0.05%

Q: What about the “UPLC peak Area, RRT 2.10” value (40° C./75% RH/4 weeks) of the same compound?
A: 0.10%

Q: What about the “UPLC peak Area, RRT 2.94” value (40° C./75% RH/4 weeks) of the same compound?
A: 0.07%

Q: What about the “Crystal form Transform” value (40° C./75% RH/4 weeks, open) of the same compound?
A: No

Q: And the Purity (40° C./75% RH/4 weeks, open)?
A: 99.72 area %

Q: And the “UPLC peak Area, RRT 1.47” value (80° C./1 d)?
A: 0.06%

Q: And the “UPLC peak Area, RRT 1.63” value (80° C./1 d)?
A: 0.05%

Q: What about the “UPLC peak Area, RRT 2.10” value (80° C./1 d) of the same compound?
A: 0.10%

Q: And the “UPLC peak Area, RRT 2.94” value (80° C./1 d)?
A: 0.08%

Q: What about the “Crystal form Transform” value (80° C./1 d, closed) of the same compound?
A: No

Q: What about the “UPLC peak Area, RRT 1.47” value (Starting) of the same compound?
A: 0.05%

Q: And the “UPLC peak Area, RRT 1.63” value (Starting)?
A: 0.05%

Q: What about the “UPLC peak Area, RRT 2.10” value (Starting) of the same compound?
A: 0.10%

Q: And the “UPLC peak Area, RRT 2.94” value (Starting)?
A: 0.07%
